Consider 27 compounds from US8846673B2, “Azaindazoles as kinase inhibitors and use thereof” (Bristol-Myers Squibb Company, priority 2009, dated 2014).

The structures appear in SMILES notation.

Chain of human recombinant Btk (Q06187 whole entry): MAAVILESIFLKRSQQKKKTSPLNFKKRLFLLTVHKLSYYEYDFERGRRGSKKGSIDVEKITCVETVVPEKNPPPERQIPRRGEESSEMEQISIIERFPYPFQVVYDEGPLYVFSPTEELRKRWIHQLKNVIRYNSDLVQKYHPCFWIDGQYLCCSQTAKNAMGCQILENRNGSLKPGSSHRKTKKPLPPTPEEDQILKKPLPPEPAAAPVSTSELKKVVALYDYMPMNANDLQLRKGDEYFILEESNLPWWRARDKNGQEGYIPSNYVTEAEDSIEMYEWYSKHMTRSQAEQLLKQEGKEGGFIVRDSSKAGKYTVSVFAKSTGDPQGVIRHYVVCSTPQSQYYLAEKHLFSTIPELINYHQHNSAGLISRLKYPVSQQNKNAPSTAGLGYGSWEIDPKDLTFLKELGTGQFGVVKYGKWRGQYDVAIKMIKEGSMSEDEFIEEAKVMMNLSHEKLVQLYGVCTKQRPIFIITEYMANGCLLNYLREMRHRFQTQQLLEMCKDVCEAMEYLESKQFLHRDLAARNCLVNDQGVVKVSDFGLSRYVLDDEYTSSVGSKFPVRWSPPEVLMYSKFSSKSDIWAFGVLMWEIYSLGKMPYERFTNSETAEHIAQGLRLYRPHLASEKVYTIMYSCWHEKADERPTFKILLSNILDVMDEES
Chain of Btk (pY551) in Ramos cells (Q06187 whole entry, the tested form may be a part): as the sequence (Q06187 whole entry) above

For the first experiment, the target named is human recombinant Btk (Homo sapiens (Human), UniProt Q06187). Briefly: Human Recombinant Btk Enzyme Assay (LLE_Btk). The class given is biochemical. Conditions: human recombinant Btk 1 nM, ATP 20 μM, 60 min room temperature. How it is done:
Human Recombinant Btk Enzyme Assay
After incubating at room temperature for 60 min, the reaction was terminated by adding 45 μl of 35 mM EDTA to each sample. The reaction mixture was analyzed on the Caliper LABCHIP® 3000 (Caliper, Hopkinton, Mass.) by electrophoretic separation of the fluorescent substrate and phosphorylated product. […] Compounds were dissolved at 10 mM in dimethylsulfoxide (DMSO) and evaluated at eleven concentrations.
By IC50 is commonly meant the midpoint of a concentration-inhibition curve. On to `COc1ccc(-c2cnc(Nc3ccccc3C)c3[nH]nc(N)c23)cc1` [Example 132, 4-(4-Methoxyphenyl)-N^7-(2-methylphenyl)-1H-pyrazolo[3,4-c]pyridine-3,7-diamine], for which the IC50 came to 0.26 µM. For the compound `Nc1n[nH]c2c(-c3ccc4[nH]ccc4c3)ncc(-c3ccc(Oc4ccccc4)cc3)c12` [Example 95, 7-(1H-Indol-5-yl)-4-(4-phenoxyphenyl)-1H-pyrazolo[3,4-c]pyridin-3-amine], the IC50 was 0.25 µM. Consider `Cc1csc(NC(=O)NC2CCN(c3cc(-c4ccc(Oc5ccccc5)cc4)c4c(N)n[nH]c4n3)C2)n1` (stereo not drawn) [Example 31, 1-(1-(3-Amino-4-(4-phenoxyphenyl)-1H-pyrazolo[3,4-b]pyridin-6-yl)-3-pyrrolidinyl)-3-(4-methyl-1,3-thiazol-2-yl)urea], for which the IC50 was determined as 9.41 µM. Turning to `Nc1n[nH]c2c(-c3ccc(Cl)c(Cl)c3)ncc(-c3ccc(Oc4ccccc4)cc3)c12` [Example 82, 7-(3,4-Dichlorophenyl)-4-(4-phenoxyphenyl)-1H-pyrazolo[3,4-c]pyridin-3-amine], the IC50 worked out at 9.18 µM. Take `Nc1n[nH]c2cncc(-c3ccc(C(=O)N4CCCC4)cc3)c12` [Example 47, 4-(4-(1-Pyrrolidinylcarbonyl)phenyl)-1H-pyrazolo[3,4-c]pyridin-3-amine]: the IC50 is 40.6 µM.

Regarding `Nc1n[nH]c2c(-c3ccc(NC(=O)c4ccccc4)cc3)ncc(-c3ccc(Oc4ccccc4)cc3)c12` [Example 61, N-(4-(3-Amino-4-(4-phenoxyphenyl)-1H-pyrazolo[3,4-c]pyridin-7-yl)phenyl)benzamide], the IC50 came to 14.9 µM. Turning to `Nc1n[nH]c2cncc(-c3ccc(OC4CCCC4)cc3)c12` [Example 44, 4-(4-(Cyclopentyloxy)phenyl)-1H-pyrazolo[3,4-c]pyridin-3-amine], the IC50 turned out to be 9.49 µM. Same read-out and setting: the value for `CN(C)C(=O)Cn1ccc(Nc2cc3[nH]nc(N)c3c(-c3ccc(Oc4ccccc4)cc3)n2)n1` [Example 249, 2-(3-((3-Amino-4-(4-phenoxyphenyl)-1H-pyrazolo[4,3-c]pyridin-6-yl)amino)-1H-pyrazol-1-yl)-N,N-dimethylacetamide] was 0.003 µM; that for `Cc1ccccc1Nc1ncc(-c2cccc(OC(C)C)c2)c2c(N)n[nH]c12` [Example 137, 4-(3-Isopropoxyphenyl)-N^7-(2-methylphenyl)-1H-pyrazolo[3,4-c]pyridine-3,7-diamine] was 0.24 µM; that for `COc1cccc(-c2cnc(Nc3ccccc3)c3[nH]nc(N)c23)c1` [Example 128, 4-(3-Methoxyphenyl)-N^7-phenyl-1H-pyrazolo[3,4-c]pyridine-3,7-diamine] was 0.29 µM. With `CS(=O)(=O)Nc1cccc(-c2ncc(-c3ccc(Oc4ccccc4)cc3)c3c(N)n[nH]c23)c1` [Example 62, N-(3-(3-Amino-4-(4-phenoxyphenyl)-1H-pyrazolo[3,4-c]pyridin-7-yl)phenyl) methanesulfonamide], the IC50 was found to be 0.27 µM. On to `Nc1n[nH]c2cc(-c3ccc(-c4nnn[nH]4)cc3)nc(-c3ccc(Oc4ccccc4)cc3)c12` [Example 223, 4-(4-Phenoxyphenyl)-6-(4-(1H-tetrazol-5-yl)phenyl)-1H-pyrazolo[4,3-c]pyridin-3-amine], for which the IC50 was determined as 0.002 µM. For the compound `CC(C)COc1cccc(-c2ncc(-c3ccc(Oc4ccccc4)cc3)c3c(N)n[nH]c23)c1` [Example 102, 7-(3-Isobutoxyphenyl)-4-(4-phenoxyphenyl)-1H-pyrazolo[3,4-c]pyridin-3-amine], the IC50 is 14 µM. `Nc1n[nH]c2cc(C3CCCN(C(=O)Nc4ccccc4)C3)nc(-c3ccc(Oc4ccccc4)cc3)c12` (stereo not drawn) [Example 236, 3-(3-Amino-4-(4-phenoxyphenyl)-1H-pyrazolo[4,3-c]pyridin-6-yl)-N-phenyl-1-piperidinecarboxamide]: the IC50 came out at 0.003 µM.

On to `COc1cccc(-c2cnc(Nc3ccccc3Cl)c3[nH]nc(N)c23)c1` [Example 130, N^7-(2-Chlorophenyl)-4-(3-methoxyphenyl)-1H-pyrazolo[3,4-c]pyridine-3,7-diamine], for which the IC50 is 0.23 µM.

Consider `Nc1n[nH]c2nc(-c3cccs3)nc(-c3ccc(Oc4ccccc4)cc3)c12` [Example 120, 4-(4-Phenoxyphenyl)-6-(2-thienyl)-1H-pyrazolo[3,4-δ]pyrimidin-3-amine], for which the IC50 was determined as 0.24 µM. On the same count and under the same terms, the value for `Nc1n[nH]c2c(-c3cccc(OC(F)(F)F)c3)ncc(-c3ccc(Oc4ccccc4)cc3)c12` [Example 113, 4-(4-Phenoxyphenyl)-7-(3-(trifluoromethoxy)phenyl)-1H-pyrazolo[3,4-c]pyridin-3-amine] was 13.8 µM. `CS(=O)(=O)Nc1ccc(-c2ncc(-c3ccc(Oc4ccccc4)cc3)c3c(N)n[nH]c23)cc1` [Example 96, N-(4-(3-Amino-4-(4-phenoxyphenyl)-1H-pyrazolo[3,4-c]pyridin-7-yl)phenyl)methanesulfonamide]: the IC50 was 0.28 µM. As for `Nc1n[nH]c2cc(C3CCN(C(=O)Nc4ccccc4)CC3)nc(-c3ccc(Oc4ccccc4)cc3)c12` [Example 242, 4-(3-Amino-4-(4-phenoxyphenyl)-1H-pyrazolo[4,3-c]pyridin-6-yl)-N-phenyl-1-piperidinecarboxamide], the IC50 is 0.002 µM. Regarding `CC(C)Oc1ccc(-c2cncc3[nH]nc(N)c23)cc1` [Example 43, 4-(4-Isopropoxyphenyl)-1H-pyrazolo[3,4-c]pyridin-3-amine], the IC50 stood at 9.31 µM. Consider `COC(=O)C(=O)N1CCCC(c2cc3[nH]nc(N)c3c(-c3ccc(Oc4ccccc4)cc3)n2)C1` (stereo not drawn) [Example 238, Methyl(3-(3-amino-4-(4-phenoxyphenyl)-1H-pyrazolo[4,3-c]pyridin-6-yl)-1-piperidinyl)(oxo)acetate], for which the IC50 came to 0.002 µM.

Turning to `Cc1ccccc1-c1ncc(-c2ccc(Oc3ccccc3)cc2)c2c(N)n[nH]c12` [Example 107, 7-(2-Methylphenyl)-4-(4-phenoxyphenyl)-1H-pyrazolo[3,4-c]pyridin-3-amine], the concentration for half-maximal inhibition (IC50) turned out to be 12.7 µM.

As for `Nc1n[nH]c2c(-c3cccc(C(F)(F)F)c3)ncc(-c3ccc(Oc4ccccc4)cc3)c12` [Example 108, 4-(4-Phenoxyphenyl)-7-(3-(trifluoromethyl)phenyl)-1H-pyrazolo[3,4-c]pyridin-3-amine], the IC50 was 16.1 µM.

On to `C=CC(=O)N1CCCC(c2cc3[nH]nc(N)c3c(-c3ccc(Oc4ccccc4)cc3)n2)C1` (stereo not drawn) [Example 237, 6-(1-Acryloyl-3-piperidinyl)-4-(4-phenoxyphenyl)-1H-pyrazolo[4,3-c]pyridin-3-amine], for which the IC50 came to 0.004 µM.

Turning to `Nc1n[nH]c2c(-c3ccccn3)cnc(-c3ccc(Oc4ccccc4)cc3)c12` [Example 225, 4-(4-Phenoxyphenyl)-7-(2-pyridinyl)-1H-pyrazolo[4,3-c]pyridin-3-amine], the IC50 was determined as 0.001 µM. On the same count and under the same terms, the value for `Cc1cccc(Oc2ccc(-c3cc(C4CCCC4)nc4[nH]nc(N)c34)cc2)c1` [Example 5, 6-Cyclopentyl-4-(4-(3-methylphenoxy)phenyl)-1H-pyrazolo[3,4-b]pyridin-3-amine] was 0.29 µM.

A further experiment concerns the target Btk (pY551) in Ramos cells (Homo sapiens (Human), UniProt Q06187). Description: Btk Phosphorylation Assay. The format is cell-based. Conditions: 1 hr preincubation, stimulated with anti-human IgM+IgG 50 μg/mL for 2 min. How it is done: Btk Phosphorylation Assay
Ramos cells (˜6×10^6 cells/10 were incubated in the presence of Btk inhibitors for 1 hr at 37° C. before being stimulated with anti-human IgM+IgG (F(ab′)2 fragment, Jackson ImmunoResearch, Catalog No. 109-006-127) at 50 μg/mL for exactly 2 min at 37° C. Cells were immediately fixed by adding an equal volume of pre-warmed BD Phosflow Fix buffer I (BD Biosciences, catalog number 557870) to the cell suspension. After incubating at 37° C. for 10 minutes, the cells were washed once with 3 mL FACS washing buffer (1% FBS/PBS) and permeabilized by adding 0.5 mL of cold BD Phosflow Penn Buffer III (BD Biosciences, Catalog No. 558050) and incubating for 30 minutes on ice. The cells were washed an additional two times with 3 mL BD FACS washing buffer, re-suspended in 100 μL FACS washing buffer, stained with 20 μL, Alexa647 anti-Btk (pY551) (BD Biosciences, Catalog No. 558134), incubated at room temperature for 30 minutes in the dark, and washed once with 3 ml of FACS washing buffer. The cells were re-suspended in 400 μl FACS wash buffer and analyzed using FACSCalibur (BD Biosciences). Median fluorescent intensity (MFI) on Alexa 647 (FL-4) data were collected and used for calculations of inhibition.
With `Nc1n[nH]c2nccc(-c3ccc(Oc4ccccc4)cc3)c12` [Example 6, 4-(4-Phenoxyphenyl)-1H-pyrazolo[3,4-b]pyridin-3-amine], inhibition was half-maximal at 0.32 µM (IC50).
